The values below come from patent publication US11911467B2, “Composition comprising PIC for treatment of cancer” (Yisheng Biopharma (Singapore) PTE LTD, priority 2016, dated 2024).

Values joined by “and” are separate entries in the source; they are usually repeats but may differ in a detail not shown here. Identical values can stand only once.

One series has as its system S180 tumor. Set-up: species or system female Balb/c mice. The note with it: mouse, in vivo.
Series [1] has as its system Ehrlich Ascites Cancer (EAC) tumor. Details: species or system female Kunming mice. Conditions: mouse, in vivo.
The test system of series [2] is LL/2 murine Lewis lung tumor.
The next series deals with 4T1 murine breast tumor. Description: 4T1 murine breast tumor model (Example 3). Format: in vivo, female Balb/c mice. How it is done:
1.1 Female Balb/c mice (6 weeks old, body weight 17.2±0.1 g) were obtained from Shanghai SIPPR-BK Laboratory Animal Co. Ltd.
The murine breast cancer cancer cell line 4T1 was obtained from American Type Culture Collection (ATCC), and maintained by HD Biosciences. Cells were maintained in DMEM with 10% fetal bovine serum in a atmosphere of 5% CO2 at 37° C. Passaging ratio was between 1:5 and 1:8, at the frequency of 3 to 4 times per week.
4T1 murine breast tumor model was established in female Balb/c mice by subcutaneous inoculation with 1×10^6 cells per animal. The rate of tumor formation was 100%. Three days post cell inoculation, the cell inoculated mice were randomly sorted into treatment groups by weight. Animals in each group were administered according to Table 2.
There were 4 groups: Vehicle group, Docetaxel group, YS-ON-001 low dose group, and YS-ON-001 high dose group.
2. The Studies were Terminated when the Average Tumor Volume in Vehicle Group Reached 2500 mm^3
3. At the end of study, the tumor mass was removed and photographed. The tumor weight was recorded. The thymus and spleen was removed and weighed. And then, the organ index was calculated.
III. Observational Indices: Same as in Example 2 Section III.
Data were reported as Mean±SEM. Comparison between groups was analysed using ANOVA.

Setting [3] is: Cisplatin 5 mg/kg i.v. QW, total 3 dosing, end of study.
Setting [4] is: Docetaxel 10 mg/kg i.v. QW, total 3 dosing, end of study.

Regarding `O=P1(N(CCCl)CCCl)NCCCO1` (centres unmarked) [CTX, Cyclophosphamide], in the series with S180 tumor, the “Tumor growth (tumor volume) compared with saline control group” value is given as “significantly inhibited the tumor growth” and the “Tumor weight compared with saline control group” value is “significantly decreased tumor weight”. Also, in series [1], the “Day on which all mice were dead” value turned out to be 30 days; the “Day on which death was first observed” value was determined as 27 days; the “Median duration (to death)” value is 29 days and 34.5 days.

With `N.N.[Cl][Pt][Cl]` [Cisplatin], in the series with B16F10 metastasis tumor (day 15, Cisplatin 5 mg/kg i.v. Q4D, YS-ON-001 200 μg/0.2 mL/mice/dose i.m./s.c. BID, p<0.01), the “Number of lung metastases compared with vehicle group” value is recorded as “significantly decreased”. In the series with B16F10 metastasis tumor (mouse, in vivo), the “Spleen weight and spleen index compared with vehicle group” value is on record as “not affected”; the “Thymus weight and thymus index compared with vehicle group” value is recorded as “significantly decreased”. In series [2] (setting [3]), the “Relative tumor proliferation rate T/C” value was 53.04% and the “Tumor inhibition rate (tumor weight)” value is 29.46%. Besides, in series [2] (mouse, in vivo), the “Spleen index compared to vehicle group” value is on record as “trend of reducing which is not significant”; the “Spleen weight compared to vehicle group” value was “significantly reduced”; the “Thymus weight and thymus index compared to vehicle group” value is reported as “significantly reduced”.

On to `CC(=O)O[C@@]12CO[C@@H]1C[C@H](O)[C@@]1(C)C(=O)[C@H](O)C3=C(C)[C@@H](OC(=O)[C@H](O)[C@@H](NC(=O)OC(C)(C)C)c4ccccc4)C[C@@](O)([C@@H](OC(=O)c4ccccc4)[C@H]21)C3(C)C` [Docetaxel], for which, in the series on 4T1 murine breast tumor (setting [4]), the “Relative tumor proliferation rate T/C” value came to 50.12% and the “Tumor inhibition rate (tumor weight)” value was 35.55%. Besides, the “Body weight compared to vehicle group” value with 4T1 murine breast tumor (Docetaxel 10 mg/kg, Day 8 and Day 13 to end of study, p<0.01) is “significantly affected”. The “Body weight change compared to vehicle group” value with 4T1 murine breast tumor (Docetaxel: Day 4 to end, two YS-ON-001 groups: Day 4 and Day 15 to end) was “significantly reduced”. Moreover, in the series with 4T1 murine breast tumor (end of study, doses of Table 2), the “Spleen weight compared to vehicle group” value was “significantly reduced”; the “Thymus weight and thymus index compared to vehicle group” value is “significantly reduced”. Moreover, the “Spleen index compared to vehicle group” value in the series with 4T1 murine breast tumor (end of study, doses of Table 2, YS-ON-001 p<0.01 low dose, p<0.05 high dose) is listed as “significantly reduced”.
